Tests used:
Assay in all cases: RP-HPLC product detection, […] nm
Assay type in all cases: biochemical
LA2383 = biological target: T1, LA2383 (Leptospira interrogans, UniProt Q8F3L8); conditions: 10 uM substrate; pH 8.5; 5 mM MgCl2; 10 mM MnCl2; 28 C, 1 h
T1 construct: gene LA_2383; HD-GYP protein lacking the conserved HD residues, pET-28a or pET-32a, E. coli BL21(DE3), Ni-NTA

LA1483 = biological target: T2, LA1483 (Leptospira interrogans, UniProt Q8F629); conditions: 100 uM GTP; pH 7.8; 10 mM MgCl2; 28 C, 1 h; product c-di-GMP
T2 construct: gene LA_1483; full-length GAF-GGDEF protein, pET-28a or pET-32a, E. coli BL21(DE3), Ni-NTA
T2 sequence (Q8F629 entry or part of it): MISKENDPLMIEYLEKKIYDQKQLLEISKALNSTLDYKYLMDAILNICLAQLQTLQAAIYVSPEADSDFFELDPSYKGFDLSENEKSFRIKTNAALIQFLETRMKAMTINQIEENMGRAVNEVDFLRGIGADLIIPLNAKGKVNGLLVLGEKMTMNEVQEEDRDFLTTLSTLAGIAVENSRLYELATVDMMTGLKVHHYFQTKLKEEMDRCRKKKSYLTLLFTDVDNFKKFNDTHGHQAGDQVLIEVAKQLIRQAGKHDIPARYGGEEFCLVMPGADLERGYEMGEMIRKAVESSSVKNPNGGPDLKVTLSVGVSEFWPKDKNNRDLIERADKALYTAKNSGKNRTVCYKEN

LA2528 = biological target: T3, LA2528 (Leptospira interrogans, UniProt Q8F383); conditions: 100 uM GTP; pH 7.8; 10 mM MgCl2; 28 C, 1 h; product c-di-GMP
T3 construct: gene pleD; full-length REC-GGDEF protein, pET-28a or pET-32a, E. coli BL21(DE3), Ni-NTA
T3 sequence (Q8F383 entry or part of it): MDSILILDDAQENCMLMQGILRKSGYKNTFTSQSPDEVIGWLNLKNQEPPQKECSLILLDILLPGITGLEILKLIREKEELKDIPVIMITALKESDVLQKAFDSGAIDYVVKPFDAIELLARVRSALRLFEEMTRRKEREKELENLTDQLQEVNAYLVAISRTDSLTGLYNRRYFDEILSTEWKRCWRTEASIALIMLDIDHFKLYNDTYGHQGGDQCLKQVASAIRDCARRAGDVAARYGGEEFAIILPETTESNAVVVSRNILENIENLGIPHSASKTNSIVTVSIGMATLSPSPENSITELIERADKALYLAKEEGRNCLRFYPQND

T1 sequence (Q8F3L8 entry or part of it): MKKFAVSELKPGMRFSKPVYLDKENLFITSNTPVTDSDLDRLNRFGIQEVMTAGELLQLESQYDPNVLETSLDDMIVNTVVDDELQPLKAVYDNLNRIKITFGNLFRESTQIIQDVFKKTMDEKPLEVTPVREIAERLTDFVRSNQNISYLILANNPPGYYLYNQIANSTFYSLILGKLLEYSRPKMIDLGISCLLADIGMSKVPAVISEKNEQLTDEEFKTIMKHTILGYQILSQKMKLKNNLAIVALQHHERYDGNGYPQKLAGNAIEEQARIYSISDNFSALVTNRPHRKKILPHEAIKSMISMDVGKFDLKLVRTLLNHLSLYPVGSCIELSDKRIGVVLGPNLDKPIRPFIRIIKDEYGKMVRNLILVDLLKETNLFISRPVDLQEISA

Structure (SMILES): Nc1nc2c(ncn2[C@@H]2O[C@H](COP(=O)(O)O[C@H]3[C@@H](O)[C@H](n4cnc5c(=O)[nH]c(N)nc54)O[C@@H]3COP(=O)(O)O)[C@@H](O)[C@H]2O)c(=O)[nH]1 [pGpG]
- RP-HPLC product detection, 254 nm (LA2383): LA2383 was able to hydrolyze both c-di-GMP and pGpG in vitro and produce GMP

Structure (SMILES): Nc1nc2c(ncn2[C@@H]2O[C@H](COP(=O)(O)OP(=O)(O)OP(=O)(O)O)[C@@H](O)[C@H]2O)c(=O)[nH]1 [GTP]
- RP-HPLC product detection, 254 nm (LA1483): they are able to utilize GTP to produce c-di-GMP
- RP-HPLC product detection, 254 nm (LA2528): they are able to utilize GTP to produce c-di-GMP

Structure (SMILES): Nc1nc2c(ncn2[C@@H]2O[C@@H]3COP(=O)(O)O[C@H]4[C@@H](O)[C@H](n5cnc6c(=O)[nH]c(N)nc65)O[C@@H]4COP(=O)(O)O[C@H]3[C@H]2O)c(=O)[nH]1 [c-di-GMP]
- RP-HPLC product detection, 254 nm (LA2383): LA2383 was able to hydrolyze both c-di-GMP and pGpG in vitro and produce GMP
